# Data published in patent US20240158393A1, “PYRIDONE COMPOUNDS AND METHODS OF USE” (Exelixis, Inc., priority 2021, published 2024).
# Counter-ions that a name gives are not always drawn.
# Molecular target: T1, Human Mer (Homo sapiens, UniProt Q12866)
# T1 construct: Human Mer (residues R557-E882 with H628Q and R794A, 0.7 nM); purchased Eurofins Pharma Discovery Services UK Limited (KinaseProfiler service)
# T1 sequence (Q12866 557-882 limits assumed): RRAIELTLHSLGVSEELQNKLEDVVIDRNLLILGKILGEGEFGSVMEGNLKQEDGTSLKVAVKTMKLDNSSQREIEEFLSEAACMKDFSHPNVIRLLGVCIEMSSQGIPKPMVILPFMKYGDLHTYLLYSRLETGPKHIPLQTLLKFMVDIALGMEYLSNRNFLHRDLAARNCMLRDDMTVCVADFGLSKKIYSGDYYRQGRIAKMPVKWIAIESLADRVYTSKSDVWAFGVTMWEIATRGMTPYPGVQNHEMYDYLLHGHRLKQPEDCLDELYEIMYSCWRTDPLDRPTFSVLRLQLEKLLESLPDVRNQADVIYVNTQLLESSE
# Assay: Human Mer kinase assay (33P radiometric / HTRF KinEase)
# Type: biochemical
# Conditions: protocols of Examples C-1 and/or C-2
# Summary of the method: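 Two formats yield IC50 values. HTRF KinEase used MER residues 528-999 with ATP at Km (40 μM), 1 μM biotin-peptide, 60 min RT, […], 10 concentrations. 33P filter assay used 0.7 nM Mer R557-E882 (H628Q/R794A), 10 μM ATP, 250 μM peptide, 40 min RT, top 1 μM.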
row,Compound,IC50 [nM]
1,"COc1cc2nccc(Oc3ccc(NC(=O)c4c5n(c(C)c(C6=CCCCC6)c4=O)CCOC5)cc3F)c2nc1OC [Compound 80, 7-(Cyclohexen-1-yl)-N-[4-[(6,7-dimethoxy-1,5-naphthyridin-4-yl)oxy]-3-fluorophenyl]-6-methyl-8-oxo-3,4-dihydro-1H-pyrido[2,1-c][1,4]oxazine-9-carboxamide]",≤ 100
2,"COc1cnc2c(Oc3ccc(NC(=O)c4c(C)nc(C)c(C(N)=O)c4O)cc3F)ccnc2c1 [Compound 91, 3-N-[3-Fluoro-4-[(7-methoxy-1,5-naphthyridin-4-yl)oxy]phenyl]-4-hydroxy-2,6-dimethylpyridine-3,5-dicarboxamide]",> 300
3,"COc1cc2nccc(Oc3ccc(NC(=O)c4cnc(C)c(/C=C/C(C)(C)C)c4O)cc3F)c2cc1OC [Compound 30, N-[4-(6,7-Dimethoxyquinolin-4-yl)oxy-3-fluorophenyl]-5-[(E)-3,3-dimethylbut-1-enyl]-4-hydroxy-6-methylpyridine-3-carboxamide]",≤ 100
4,"COc1cc2nccc(Oc3ccc(NC(=O)c4c(C)n(C)c(C)c(C(=O)N(C)C)c4=O)cc3F)c2nc1OC [Compound 95, 5-N-[4-[(6,7-Dimethoxy-1,5-naphthyridin-4-yl)oxy]-3-fluorophenyl]-3-N,3-N,1,2,6-pentamethyl-4-oxopyridine-3,5-dicarboxamide]",> 300
5,"COCCOc1cc2nccc(Oc3ccc(NC(=O)c4c(C)n(C)c(C)c(/C=C/C(C)(C)C)c4=O)cc3F)c2nc1OC [Compound 45, 5-[(E)-3,3-Dimethylbut-1-enyl]-N-[3-fluoro-4-[[6-methoxy-7-(2-methoxyethoxy)-1,5-naphthyridin-4-yl]oxy]phenyl]-1,2,6-trimethyl-4-oxopyridine-3-carboxamide]",≤ 100
6,"COc1cc2nccc(Oc3ccc(NC(=O)c4cnc(C)c(C5=CCOCC5)c4O)cc3)c2cc1OC [Compound 17, 5-(3,6-Dihydro-2H-pyran-4-yl)-N-[4-(6,7-dimethoxyquinolin-4-yl)oxyphenyl]-4-hydroxy-6-methylpyridine-3-carboxamide]",≤ 100
7,"COc1cc2nccc(Oc3ccc(NC(=O)c4c(C)n(C)c(C)c(N5CCOCC5)c4=O)cc3F)c2nc1OC [Compound 88, N-[4-[(6,7-Dimethoxy-1,5-naphthyridin-4-yl)oxy]-3-fluorophenyl]-1,2,6-trimethyl-5-morpholin-4-yl-4-oxopyridine-3-carboxamide]",≤ 100
8,"COc1cnc2c(Oc3ccc(NC(=O)c4c(C)nc(C)c(C(C)C)c4O)cc3F)ccnc2c1 [Compound 32, N-[3-Fluoro-4-[(7-methoxy-1,5-naphthyridin-4-yl)oxy]phenyl]-4-hydroxy-2,6-dimethyl-5-propan-2-ylpyridine-3-carboxamide]",≤ 100
9,"COc1cc2nccc(Oc3ccc(NC(=O)c4cnc(C)c(C5=CCOCC5)c4O)cc3F)c2cc1OC [Compound 19, 5-(3,6-Dihydro-2H-pyran-4-yl)-N-[4-(6,7-dimethoxyquinolin-4-yl)oxy-3-fluorophenyl]-4-hydroxy-6-methylpyridine-3-carboxamide]",≤ 100
10,"COc1cc2nccc(Oc3ccc(NC(=O)c4cn(CCF)c(C)c(C5=CCCCC5)c4=O)cc3F)c2nc1OC [Compound 8, 5-(Cyclohexen-1-yl)-N-[4-[(6,7-dimethoxy-1,5-naphthyridin-4-yl)oxy]-3-fluorophenyl]-1-(2-fluoroethyl)-6-methyl-4-oxopyridine-3-carboxamide]",≤ 100
11,"COc1cc2nccc(Oc3ccc(NC(=O)c4c(C)cc(C)n(C5CCCC5)c4=O)cc3F)c2nc1OC [Compound 15, 1-Cyclopentyl-N-[4-[(6,7-dimethoxy-1,5-naphthyridin-4-yl)oxy]-3-fluorophenyl]-4,6-dimethyl-2-oxopyridine-3-carboxamide]",≤ 100
12,"COCCOc1cc2nccc(Oc3ccc(NC(=O)c4c(C)n(C)c(C)c(/C=C/C5CC5)c4=O)cc3F)c2nc1OC [Compound 51, 5-[(E)-2-Cyclopropylethenyl]-N-[3-fluoro-4-[[6-methoxy-7-(2-methoxyethoxy)-1,5-naphthyridin-4-yl]oxy]phenyl]-1,2,6-trimethyl-4-oxopyridine-3-carboxamide]",≤ 100
13,"COc1cc2nccc(Oc3ccc(NC(=O)c4c(C)n(C)c(C)c(N5CCCCC5)c4=O)cc3F)c2nc1OC [Compound 90, N-[4-[(6,7-dimethoxy-1,5-naphthyridin-4-yl)oxy]-3-fluorophenyl]-1,2,6-trimethyl-4-oxo-5-piperidin-1-ylpyridine-3-carboxamide]",≤ 100
14,"COc1cnc2c(Oc3ccc(NC(=O)c4c(C)n(C)c(C)c(C#N)c4=O)cc3F)ccnc2c1 [Compound 81, 5-Cyano-N-[3-fluoro-4-[(7-methoxy-1,5-naphthyridin-4-yl)oxy]phenyl]-1,2,6-trimethyl-4-oxopyridine-3-carboxamide]",> 300
15,"COCCOc1cc2nccc(Oc3ccc(NC(=O)c4cnc(C)c(/C=C/C5CC5)c4O)cc3F)c2nc1OC [Compound 37, 5-[(E)-2-Cyclopropylethenyl]-N-[3-fluoro-4-[[6-methoxy-7-(2-methoxyethoxy)-1,5-naphthyridin-4-yl]oxy]phenyl]-4-hydroxy-6-methylpyridine-3-carboxamide]",≤ 100
16,"COc1cc2nccc(Oc3ccc(NC(=O)c4cnc(C)c(C5=CCCC5)c4O)cc3F)c2cc1OC [Compound 18, 5-(Cyclopenten-1-yl)-N-[4-(6,7-dimethoxyquinolin-4-yl)oxy-3-fluorophenyl]-4-hydroxy-6-methylpyridine-3-carboxamide]",≤ 100
17,"COc1cc2nccc(Oc3ccc(NC(=O)c4cnc(C)c(/C=C/CC(C)C)c4O)cc3F)c2nc1OC [Compound 28, N-[4-[(6,7-Dimethoxy-1,5-naphthyridin-4-yl)oxy]-3-fluorophenyl]-4-hydroxy-6-methyl-5-[(E)-4-methylpent-1-enyl]pyridine-3-carboxamide]",≤ 100
18,"COCCOc1cc2nccc(Oc3ccc(NC(=O)c4cnc(C)c(C5=CCCC5)c4O)cc3F)c2nc1OC [Compound 33, 5-(Cyclopenten-1-yl)-N-[3-fluoro-4-[[6-methoxy-7-(2-methoxyethoxy)-1,5-naphthyridin-4-yl]oxy]phenyl]-4-hydroxy-6-methylpyridine-3-carboxamide]",≤ 100
19,"COc1cc2nccc(Oc3ccc(NC(=O)c4c(C)n(C)c(C)c(C5CC5)c4=O)cc3F)c2nc1OC [Compound 46, 5-Cyclopropyl-N-[4-[(6,7-dimethoxy-1,5-naphthyridin-4-yl)oxy]-3-fluorophenyl]-1,2,6-trimethyl-4-oxopyridine-3-carboxamide]",≤ 100
20,"COc1ccc2nccc(Oc3ccc(NC(=O)c4cnc(C)c(C5=CCCC5)c4O)cc3F)c2n1 [Compound 1-7, 5-(Cyclopenten-1-yl)-N-[3-fluoro-4-[(6-methoxy-1,5-naphthyridin-4-yl)oxy]phenyl]-4-hydroxy-6-methylpyridine-3-carboxamide]",≤ 100
21,"COCCOc1cc2nccc(Oc3ccc(NC(=O)c4cnc(C)c(C5=CCOCC5)c4O)cc3F)c2nc1OC [Compound 35, 5-(3,6-Dihydro-2H-pyran-4-yl)-N-[3-fluoro-4-[[6-methoxy-7-(2-methoxyethoxy)-1,5-naphthyridin-4-yl]oxy]phenyl]-4-hydroxy-6-methylpyridine-3-carboxamide]",≤ 100
22,"COCCOc1cc2nccc(Oc3ccc(NC(=O)c4c(C)nc(C)c(C5=CCOCC5)c4O)cc3F)c2nc1OC [Compound 43, 5-(3,6-Dihydro-2H-pyran-4-yl)-N-[3-fluoro-4-[[6-methoxy-7-(2-methoxyethoxy)-1,5-naphthyridin-4-yl]oxy]phenyl]-4-hydroxy-2,6-dimethylpyridine-3-carboxamide]",≤ 100
23,"COc1cc2nccc(Oc3ccc(NC(=O)c4c5n(c(C)c(C6=CCOCC6)c4=O)CCOC5)cc3F)c2nc1OC [Compound 79, 7-(3,6-Dihydro-2H-pyran-4-yl)-N-[4-[(6,7-dimethoxy-1,5-naphthyridin-4-yl)oxy]-3-fluorophenyl]-6-methyl-8-oxo-3,4-dihydro-1H-pyrido[2,1-c][1,4]oxazine-9-carboxamide]",≤ 100
24,"COc1cc2nccc(Oc3ccc(NC(=O)c4c5n(cc(C6=CCCCC6)c4=O)CCOC5)cc3)c2nc1OC [Compound G1-5, 7-(Cyclohexen-1-yl)-N-[4-[(6,7-dimethoxy-1,5-naphthyridin-4-yl)oxy]phenyl]-8-oxo-3,4-dihydro-1H-pyrido[2,1-c][1,4]oxazine-9-carboxamide]",≤ 100
25,"C=C(C)c1c(C)nc(C)c(C(=O)Nc2cc(F)c(Oc3ccnc4cc(OC)c(OC)nc34)cc2F)c1O [Compound 6, N-[4-[(6,7-Dimethoxy-1,5-naphthyridin-4-yl)oxy]-2,5-difluorophenyl]-4-hydroxy-2,6-dimethyl-5-prop-1-en-2-ylpyridine-3-carboxamide]",≤ 100
26,"COc1cnc2c(Oc3ccc(NC(=O)c4cnc(C)c(C5=CCCC5)c4O)cc3F)ccnc2c1 [Compound 1-9, 5-(Cyclopenten-1-yl)-N-[3-fluoro-4-[(7-methoxy-1,5-naphthyridin-4-yl)oxy]phenyl]-4-hydroxy-6-methylpyridine-3-carboxamide]",≤ 100
27,"COc1cc2nccc(Oc3ccc(NC(=O)c4c(C)nc(C)c(C5=CCCC5)c4O)cc3F)c2nc1OC [Compound 1-2, 5-(Cyclopenten-1-yl)-N-[4-[(6,7-dimethoxy-1,5-naphthyridin-4-yl)oxy]-3-fluorophenyl]-4-hydroxy-2,6-dimethylpyridine-3-carboxamide hydrochloride]",≤ 100
